This passage reports IC50 and inhibition in vivo results from US5874442A, “Tricyclic amides useful for inhibition of G-protein function and for treatment of proliferative disease” (Schering-Plough Corporation, priority 1996, dated 1999).

The term pIC50 denotes the IC50 on a negative log10 scale, so that one unit is a factor of ten.

The test system of one assay is HTB 177. Nature of the assay: Soft agar assay. The note with it: Homo sapiens; HTB 177 (NSCLC) K ras mutation; read-out: IC50, inhibition of human tumor cell growth, soft agar. The class given is cell-based. On the procedure:
(§1) Anchorage-independent growth is a characteristic of tumorigenic cell lines. Human tumor cells are suspended in growth medium containing 0.3% agarose and an indicated concentration of a farnesyl transferase inhibitor. The solution is overlayed onto growth medium solidified with 0.6% agarose containing the same concentration of farnesyl transferase inhibitor as the top layer. […] After incubation, the colonies are stained by overlaying the agar with a solution of MTT (3-[4,5-dimethylthiazol-2-yl]-2,5-diphenyltetrazolium bromide, Thiazolyl blue) (1 mg/mL in PBS). Colonies are counted and the IC50's determined.

The subject of the next assay is A549. Nature of the assay: Soft agar assay. The class given is cell-based. As to conditions: Homo sapiens; A549 (lung) K ras mutation; read-out: IC50, inhibition of human tumor cell growth, soft agar. On the procedure: as §1
Another assay relates to HTB 175. Nature of the assay: Soft agar assay. The format is cell-based. As to conditions: Homo sapiens; HTB 175 (SCLC) ras mut. not detected; read-out: IC50, inhibition of human tumor cell growth, soft agar. The procedure:
as §1

For assay [1], the system named is DLD-1 (human colon carcinoma cells). As to the kind of experiment: In vivo anti-tumor studies, subcutaneous DLD-1 tumors in athymic nu/nu mice. On the set-up: species or system athymic nu/nu female mice. The note with it: Mus musculus, DLD-1, po, […], read-out: Average % Tumor Inhibition.
Procedure: Tumor bearing animals are selected and randomized when the tumors are established. Animals are treated with vehicle (β-cyclodextrin for i.p. or corn oil for p.o.) only or with a compound of the present invention in vehicle four times a day (QID) for 7 days per week for 4 weeks. The percent inhibition of tumor growth relative to vehicle controls is determined by tumor measurements.
The test system of assay [2] is Normal human HEPM fibroblasts. Nature of the assay: Cell mat assay, normal cells (cell mat). The class given is cell-based. The note with it: Homo sapiens, Fibroblast, 336 h, read-out: Normal IC50. On the procedure: (§2) Compound-induced colony inhibition was assayed by addition of serial dilutions of compound directly to the growth medium 24 h after tumor cell planting, and incubating cells for an additional 14 d to allow colony formation. Assays were terminated by rinsing monolayers twice with phosphate-buffered saline (PBS), fixing the monolayers with a 1% glutaraldehyde solution in PBS, then visualizing tumor cells by staining with X-Gal (Price, J., et al., Lineage analysis in the vertebrate nervous system by retrovirus-mediated gene transfer, Proc. Natl. Acad. Sci.84, 156-160(1987)). […] Both IC50 values were obtained by determining the density of tumor cells and mat cells by visual inspection and enumeration of cells per colony and the number of colonies under the microscope.

The subject of assay [3] is DLD-1-BAG human colon carcinoma cells. Nature of the assay: Cell mat assay, DLD-1-BAG tumor cells. The format is cell-based. The note with it: Homo sapiens, DLD-1, 336 h, read-out: Tumor (DLD-1) IC50. The procedure: as §2
(§3) Additional assays were carried out by following essentially the same procedure as described above, but with substitution of alternative indicator tumor cell lines in place of the T24-BAG cells. The assays were conducted using either DLD-1-BAG human colon carcinoma cells expressing as activated K-ras gene or SW620-BAG human colon carcinoma cells expressing an activated K-ras gene.

For assay [4], the system named is T24-BAG4 human bladder carcinoma cells expressing an activated H-ras gene. Nature of the assay: Cell mat assay, T24-BAG4 tumor cells. The format is cell-based. The note with it: Homo sapiens, 336 h, read-out: Tumor (T-24) IC50. The procedure:
as §2

Assay [5] concerns SW620-BAG human colon carcinoma cells expressing an activated K-ras gene. As to the kind of experiment: Cell mat assay, SW620-BAG tumor cells. The class given is cell-based. The note with it: Homo sapiens, SW-620, 336 h, read-out: Tumor (SW620) IC50, Mat assay, 14 d. On the procedure:
as §2, §3

In another assay the test system is K ras NIH 3T3. As to the kind of experiment: Soft agar assay. The format is cell-based. As to conditions: Mus musculus, NIH3T3, read-out: IC50, inhibition of human tumor cell growth, soft agar.
For a further assay, the system named is MDA MB 468. Nature of the assay: Soft agar assay. The class given is cell-based. The note with it: Homo sapiens; MDA MB 468 (breast) ras mut. not detected; read-out: IC50, inhibition of human tumor cell growth, soft agar. The procedure:
(§4) Anchorage-independent growth is a characteristic of tumorigenic cell lines. Human tumor cells are suspended in growth medium containing 0.3% agarose and an indicated concentration of a farnesyl transferase inhibitor. The solution is overlayed onto growth medium solidified with 0.6% agarose containing the same concentration of farnesyl transferase inhibitor as the top layer. After the top layer is solidified, plates are incubated for 10-16 days at 37° C. under 5% CO2 to allow colony outgrowth. After incubation, the colonies are stained by overlaying the agar with a solution of MTT (3-[4,5-dimethylthiazol-2-yl]-2,5-diphenyltetrazolium bromide, Thiazolyl blue) (1 mg/mL in PBS). Colonies are counted and the IC50's determined.

The next assay relates to MCF-7. Nature of the assay: Soft agar assay. The format is cell-based. The note with it: Homo sapiens, MCF7; MCF-7 (breast) ras mut. not detected; read-out: IC50, inhibition of human tumor cell growth, soft agar. On the procedure: as §4
In the next assay the test system is MDA MB453 (breast). As to the kind of experiment: Soft agar assay. The class given is cell-based. As to conditions: Homo sapiens, MDA-MB-453, read-out: IC50, inhibition of human tumor cell growth, soft agar. On the procedure: as §4
For another assay, the system named is HTB 173 (NCI H146). Nature of the assay: Soft agar assay. As to conditions: Homo sapiens; HTB 173 (NCI H146) (SCLC) ras mut. not detected; read-out: IC50, inhibition of human tumor cell growth, soft agar. The format is cell-based. The procedure:
as §4

The subject of the next assay is BT474 (breast). As to the kind of experiment: Soft agar assay. The class given is cell-based. The note with it: Homo sapiens, BT-474, read-out: IC50, inhibition of human tumor cell growth, soft agar. The procedure:
as §4

For the next assay, the system named is Du4475. Nature of the assay: Soft agar assay. The class given is cell-based. As to conditions: Homo sapiens, DU-4475; Du4475 (breast) ras mut. not detected; read-out: IC50, inhibition of human tumor cell growth, soft agar. On the procedure: as §4
In another assay the test system is DLD 1. Nature of the assay: Soft agar assay. As to conditions: Homo sapiens; DLD 1 (colon) K ras mutation; read-out: IC50, inhibition of human tumor cell growth, soft agar. The format is cell-based. The procedure: as §4
A further assay concerns HTB 119 (NCI H69). Nature of the assay: Soft agar assay. The class given is cell-based. As to conditions: Homo sapiens; HTB 119 (NCI H69) (SCLC); read-out: IC50, inhibition of human tumor cell growth, soft agar. On the procedure:
as §4

The test system of a further assay is DU 145. As to the kind of experiment: Soft agar assay. The format is cell-based. The note with it: Homo sapiens; DU 145 (prostate) ras mut. not detected; read-out: IC50, inhibition of human tumor cell growth, soft agar. The procedure: as §4
The test system of the next assay is HBL100. Nature of the assay: Soft agar assay. As to conditions: Homo sapiens, HBL-100; HBL100 (breast) ras mut. not detected; read-out: IC50, inhibition of human tumor cell growth, soft agar. The format is cell-based. On the procedure:
as §4

The next assay has as its system HTB 183 (NCI H661). Nature of the assay: Soft agar assay. The format is cell-based. The note with it: Homo sapiens; HTB 183 (NCI H661) (NSCLC) ras mut. not detected; read-out: IC50, inhibition of human tumor cell growth, soft agar. The procedure:
as §4

The next assay has as its system HPAF II. Nature of the assay: Soft agar assay. The class given is cell-based. As to conditions: Homo sapiens; HPAF II (pancreatic) K ras mutation; read-out: IC50, inhibition of human tumor cell growth, soft agar. The procedure: as §4

Molecules are shown by their SMILES. pIC50: −log10 of the molar value. Some results are limits rather than exact numbers.

As for `NC(=O)N1CCC(CC(=O)N2CCC([C@H]3c4ncc(Br)cc4CCc4cc(Cl)cc(Br)c43)CC2)CC1` [Example 10], the negative logarithm of the IC50 (pIC50) was 7.40 in the assay with HTB 177; 6.82 in the assay on A549; 6.60 in the assay with HTB 175; under 4.60 in [2]; over 5.80 in assay [3]; over 5.80 in assay [4]. Besides, the pIC50 in [5] is 5.51; with K ras NIH 3T3, 6.40; in the assay on MDA MB 468 it was 6.22; in the assay on MCF-7, over 6.22; with MDA MB453 (breast), 6.22; with HTB 173 (NCI H146) it was 7.30. Also, the pIC50 in the assay with BT474 (breast) was 6.00; in the assay on Du4475, 6.22; with DLD 1 it was 5.60; with HTB 119 (NCI H69) it was 6.52; with DU 145, 6.22; in the assay with HBL100, over 6.22. Further, the pIC50 with HTB 183 (NCI H661) is 6.30; with HPAF II, over 6.30. Moreover, the inhibition in vivo at 10 mg/kg in [1] was determined as 49%. Moreover, the inhibition in vivo at 50 mg/kg in assay [1] is 77%.
